Broadly, the Km is the substrate concentration at which the rate is half of its maximum.

The target in data set [1] is T1, recombinant human acetylcholinesterase (HuAChE), wild type (Homo sapiens, UniProt P22303). The settings on record: read-out: Km (ATC); pH 8.
The target of data set [2] is recombinant HuAChE mutant Glu450Ala (Homo sapiens, UniProt P22303, E481A). Format: biochemical.
For data set [3], the target named is T1, recombinant human acetylcholinesterase (HuAChE), wild type. Format: biochemical.
Data set [4] addresses recombinant HuAChE mutant Glu202Gln (Homo sapiens, UniProt P22303, E233Q). Format: biochemical.
Data set [5] has as its target recombinant HuAChE mutant Phe338Ala (Homo sapiens, UniProt P22303, F369A). The format is biochemical.
In data set [6] the target is recombinant HuAChE mutant Tyr337Ala (Homo sapiens, UniProt P22303, Y368A). Format: biochemical.
Sequence of recombinant HuAChE mutant Tyr337Ala (P22303 32-614 Y368A limits assumed): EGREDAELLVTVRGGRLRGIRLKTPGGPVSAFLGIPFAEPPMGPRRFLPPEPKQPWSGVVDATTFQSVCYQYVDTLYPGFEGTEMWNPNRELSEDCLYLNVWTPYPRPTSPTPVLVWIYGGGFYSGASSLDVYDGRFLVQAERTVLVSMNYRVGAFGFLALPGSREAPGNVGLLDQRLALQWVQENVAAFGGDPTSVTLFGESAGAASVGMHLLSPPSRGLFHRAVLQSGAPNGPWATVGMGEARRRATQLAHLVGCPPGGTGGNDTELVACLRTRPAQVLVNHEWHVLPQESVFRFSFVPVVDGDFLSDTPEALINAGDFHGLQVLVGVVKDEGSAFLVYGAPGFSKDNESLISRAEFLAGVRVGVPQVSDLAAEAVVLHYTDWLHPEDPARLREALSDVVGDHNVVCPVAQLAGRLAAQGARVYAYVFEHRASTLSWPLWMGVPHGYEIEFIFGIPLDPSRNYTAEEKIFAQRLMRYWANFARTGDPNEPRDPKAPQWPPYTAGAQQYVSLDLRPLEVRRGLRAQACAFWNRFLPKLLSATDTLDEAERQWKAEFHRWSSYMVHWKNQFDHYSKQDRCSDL
The subject of the next data set is CC(=O)SCC[N+](C)(C)C. Nature of the data set: purified protein, by the assay type. The conditions noted are these: other: Tyr133Ala, sodium-phosphate buffer pH 8, 27°C.
The test system of the next data set is CC(=O)SCCC(C)(C)C. Kind of data set: purified protein, by the assay type. The settings on record: pH 8.0; 27.0 °C.

T1 sequence (P22303 32-614): as the sequence (P22303 32-614 Y368A limits assumed) above, with A337Y counted along it
Sequence of recombinant HuAChE mutant Phe338Ala (P22303 32-614 F369A limits assumed): as the sequence (P22303 32-614 Y368A limits assumed) above, with A337Y, F338A counted along it
Sequence of recombinant HuAChE mutant Glu202Gln (P22303 32-614 E233Q limits assumed): as the sequence (P22303 32-614 Y368A limits assumed) above, with E202Q, A337Y counted along it
Sequence of recombinant HuAChE mutant Glu450Ala (P22303 32-614 E481A limits assumed): as the sequence (P22303 32-614 Y368A limits assumed) above, with A337Y, E450A counted along it

Take `CC(=O)SCC[N+](C)(C)C.[I-]` [ATC, Acetylthiocholine iodide]: the Km in data set [1] was 130 ± 15 µM.
As for `CCOP(=O)(OCC)Oc1ccc([N+](=O)[O-])cc1` [paraoxon], the “ki (paraoxon) relative to the wild type” value in data set [2] is 1.9±0.7 (0.02); in data set [3], 97 ±16 (1.00); in data set [4], 2.8±0.48(0.03); in data set [5], 7.1±0.6 (0.07); in data set [6], 14.4±1.4 (0.15). The results for the “ki, rate constant of phosphylation (paraoxon)” value in data set [4] (acetylcholinesterase), in data set [5] (acetylcholinesterase) and in data set [6] (acetylcholinesterase) were 2.8±0.48(0.03) x 10^-4.M^-1.min^-1, 7.1±0.6 (0.07) x 10^-4.M^-1.min^-1 and 14.4±1.4 (0.15) x 10^-4.M^-1.min^-1, respectively.
As to “recombinant HuAChE mutant Tyr133Ala (Homo sapiens; Y164A)”, the Km with CC(=O)SCC[N+](C)(C)C came out at 5750 µM.
For the compound “recombinant human acetylcholinesterase (HuAChE), wild type (Homo sapiens)”, the Km in the data set on CC(=O)SCCC(C)(C)C was 280 ± 80 µM.

The values above are taken from patent EP0651055A2 (priority 1993, dated 1995).
